In patent US20150024008A1, “Methods and Compositions Involving Induced Senescent Cells for Cancer Treatment” (THE UNIVERSITY OF CHICAGO, priority 2011, published 2015):

How the values were obtained:
[1] = system: B16SIY murine melanoma tumors; assay: B16SIY tumor growth after veliparib and IR; type: in vivo, mouse; conditions: veliparib 0.5 mg twice daily oral + 6 or 12 Gy IR vs IR alone; C57/B6 mice
Method: (§1) Mouse melanoma cell line B16SIY (5×10^5 cells) were implanted subcutaneously in the flank of 6 to 8-wk-old C57/B6 mice. Tumors were allowed to grow until they reached a volume of about 100 to 150 mm^3 (approximately 2 wk) before treatment with PARP inhibitor veliparib (vrib, (R)-2-(2-methylpyrrolidin-2-yl)-1H-benzo[d]imidazole-4-carboxamide, ABT-888) and/or IR (Dunn 2006). Mice received 0.5 mg of veliparib in water twice daily by oral gavage as indicated. CD8^+, CD4^+, NK cells were depleted by anti-CD8 or anti-CD4 or anti-NK1.1, respectively, 1 d before IR. Depletion was confirmed by checking peripheral blood samples by flow cytometry. Macrophages were depleted with liposomal clodronate starting 1 d before IR. Depletion was confirmed by checking splenocyte and tumor samples by flow cytometry (Zhang 2008). Samples were collected 2 to 7 days later, and analyzed by flow cytometry using a BD LSRII flow cytometer. Blood samples were gated in forward scatter and side scatter on smaller cells for CD8, CD4 analysis, larger cells for NK and macrophage, and the percentage of different cell types were determined (Lugade 2008, Zhang 2010).

[2] = system: B16 tumors; assay: RT-qPCR and immunohistochemistry of treated B16 tumors; type: in vivo, mouse
Method: as §1
(§2) Slides were deparaffinized in xylene and hydrated with alcohol before being placed in 0.3% H2O2/methanol blocking solution to quench endogenous peroxidase activity followed by subsequent antigen unmasking in EDTA buffer. […] Reactions were developed with 3,3′-diaminobenzidine chromogen or Vulcan Red, respectively, and counterstained with hematoxylin. Negative controls were obtained by using isotype-matched primary antibody IgG. The SA-βGal assay was performed using the Senescence Beta-galactosidase Staining Kit (Cell Signaling) (Dunn 2006). All images were captured using Zeiss Axiovert 200M and Zeiss Axiocam color digital camera controlled by OpenLab software with a 20× objective. All primers sequence and running protocols for RT-PCR can be found in reference Table 2 (Lugade 2008, Zhang 2008).

[3] = system: bone marrow DCs; assay: BM-DC coculture with veliparib/IR treated B16 cells; type: cell-based, mouse
Text: B16SIY cells were maintained in a full medium supplemented with 10% FCS. The cells were pretreated with 10 μm veliparib then exposed to 6 or 12 Gy x-ray or IR alone (Gammacell 1000; MDS Nordion, Kanata, Ontario, Canada), then cocultured with immature BM-DC in a transwell system. 3 days later BM-DC were collected and analyzed by FACS for cell surface maturation marker and intracellular cytokines. […]

[4] = system: MCF7 Tet-On GFP-IBD human breast cancer cell line; assay: GFP-53BP1 IRIF persistence, senescence and growth in MCF7 Tet-On GFP-IBD cells; type: cell-based
Method: To examine the effect of glucose metabolism on IRIF persistence in living cells, we exploited our previously described IRIF reporter consisting of GFP fused to the 53BP1 IRIF binding domain, expressed under tetracycline-inducible control. MCF7^Tet-On GFP-IBD cells were seeded at 3×10^5 per Fluorodish (World Precision Instruments, Inc.) in high-glucose (4.5 g/L) DMEM (Invitrogen) media supplemented with 10% Tet system-approved fetal bovine serum (Clontech) and 1 μg/mL doxycycline (Sigma). Next day media was exchanged for either high-glucose (4.5 g/L) or low-glucose (1 g/L) DMEM with 10% FBS and 1 μg/mL doxycycline. […] Cells were fixed at 3 h and 24 h for IRIF imaging and at day 5 for SA-βGal staining. Images were captured on Zeiss Axiovert 200M and a Hammatsu Orca ER FireWire digital monochrome (IRIF) or Zeiss Axiocam color digital camera (SA-βGal staining) controlled by OpenLab software.
To investigate what step of glycolysis is critical for improvement of DNA repair we used set of well established glycolysis inhibitors including glucose transporter Glut1 inhibitor, HXKi, GAPHi, PKi, LDHi. […] Given that elevated glycolysis predispose tumor cells for therapeutic resistance similar experiment has been performed on IR resistant PANC02 mouse pancreatic and U87 human glioma cell lines.

[5] = system: TUBO murine mammary tumor cells; assay: Senescence, SASP expression and ATP release of TUBO cells in low or high glucose media; type: cell-based, mouse
Method: as §2

[6] = system: breast, prostate, melanoma and head and neck squamous cell cancer cell lines; assay: Radiation induced senescence in different human cancer cell lines; type: cell-based; conditions: combined with radiation
[7] = system: bone marrow dendritic cells (CD11c); assay: Coculture of DCs with senescent TRAMP-C2 cells, immunostimulation assay; conditions: CD45 positive cells
Method: Briefly 2×10^6 of collected BM cells were resuspended in 10 ml of complete medium (CM) (RPMI, 10% FBS, pen/strep, HEPES) +20 ng/ml mouse granulocyte-macrophage colony-stimulating factor (GM-CSF). BM were transferred to uncoated plastic Petri dish. On a third day 10 ml of fresh CM+20 ng/ml GM-CSF were added. Immature dendritic cells (DC) were harvested on day 5, were suspended at 5×10^6 cells/ml in ice-cold freezing medium (CM+10 ng/ml GM-CSF+10% DMSO) and frozen for future experiments.
Assayed cells (TRAMP-C2) were plated 2.5×10^5 p100 plates and next day irradiated (6Gy) and 25 μM veliparib to obtained senescent phenotype. For TRAMP-C2 the coculture was started 6 days after cell irradiation and veliparib treatment. DCs were thawed and plated in CM+10 ng/ml GM-CSF 24 hours before they were cocultured with senescent TRAMP-C2 cells. In a day when co-culture started DCs were detached with trypsin and washed twice with phosphate buffered saline (PBS) to remove GM-CSF. Senescent TRAMP-C2 cells culture was washed with PBS and medium also changed to remove veliparib. Washed DCs and senescent cells were cocultured in fresh medium for 2-3 days.
After coculture medium was collected to harvest non-adherent cells fraction. […]
As CD45 is marker of immune cells, only CD45 positive cells were analyzed and TRAMP-C2 cells could be excluded from analysis as CD45 negative.

In the case of `C[C@]1(c2nc3c(C(N)=O)cccc3[nH]2)CCCN1` [veliparib, (R)-2-(2-methylpyrrolidin-2-yl)-1H-benzo[d]imidazole-4-carboxamide], the tumor regrowth [1] is reported as “markedly delayed tumor regrowth”, the “SASP gene expression in tumors (IFNβ, IFNγ, CCL2, CCL5, CXCL9, CXCL10, CXCL11)” value ([2]; veliparib+IR) is reported as “increased expression of SASP genes” and the “immunohistochemistry of enlarged senescent tumor cells” value ([2]; veliparib+IR) is reported as “distinct strong staining of IFNβ, CCL2, CXCL9 and CXCL10”. For the same molecule, the “p21 and p16 expression in tumors” value ([2]; veliparib+IR vs IR alone, normalized to GAPDH) was “significantly increased expression of p21 and p16”, the “CD8+ cell proliferation stimulated by cocultured DCs” value ([3]; DCs from coculture with veliparib+IR treated B16 cells) was “better stimulated CD8+ cell proliferation” and the “CD11c+ cell proliferation” value ([3]; coculture with B16 cells treated with veliparib+6 Gy vs untreated or irradiated cells) was “increased CD11c+ cell proliferation”. For the same molecule, the “CD11c+ cell maturation (MHC-II+, CD86+)” value ([3]; coculture with veliparib+IR-treated cells vs radiation only) was “enhanced CD11c+ cell maturation”, the “effect on cisplatin-induced foci persistence, senescence and growth suppression” value ([4]; combined with cisplatin) was “enhances this effect” and the accelerated senescence ([4]; combined with irradiation) was “induces accelerated senescence”. For the same molecule, the “persistence of GFP-53BP1 foci (IRIF)” value ([4]; combined with irradiation) was “enhance radiation induced persistence of GFP-53BP1 foci”, the “foci persistence and senescence in presence of estrogen” value ([4]; irradiated cells, estrogen) was “overcomes the activity of estrogen” and the growth ([4]; veliparib+6 Gy vs veliparib or radiation alone) was “causes growth suppression”. The cell survival ([5]; IR and veliparib+IR, low glucose medium) was “more cells survived”, the “senescent cell morphology and SA-βGal expression” value ([5]; veliparib and 12 Gy, data not shown) was “fail to display either the characteristic cell morphology or SA-βGal expression” and the “IFNβ and CCL5 expression kinetics” value ([5]; veliparib+IR, high glucose media) was “only showed low level IFNβ and CCL5 at day 7”. For the same molecule, the SA-βGal staining ([5]; veliparib+IR, low glucose media vs high glucose) was “More TUBO cells displayed enhanced senescence-associated β-galactosidase staining”, the “extracellular ATP release” value ([5]; veliparib+IR, low glucose media, higher density) was “higher ATP was detected” and the “IFNβ and CXCL11 expression kinetics” value ([5]; veliparib+IR, low glucose medium) was “started at day 5 through day 10”. For the same molecule, the cell apoptosis ([5]; veliparib+IR, low vs high glucose medium) was “no increased cell apoptosis”, the radiation induced senescence [6] was “enhances radiation induced senescence” and the “population of CD11c positive cells” value ([7]; TRAMP-C2 treated with 0 Gy+25 μM veliparib) was 5.2%. For the same molecule, the “population of CD11c positive cells” value ([7]; TRAMP-C2 treated with IR (6Gy)+25 μM veliparib) was 36.7%.
